Assay results taken from patent publication US20250160678A1, “GRAPHENE SENSOR SYSTEMS FOR C[…] ANALYSIS” (VOCxI Health, Inc., priority 2023, published 2025).

Assay: elimination curves of cannabinoids after ingestion (FIG. 2)
Format: in vivo
Settings: time of Test 2 (which may be two hours after cannabinoid ingestion)
From the text: Referring now to FIG. 1, a chart is shown of elimination curves of various cannabinoids. […] The relative amounts of cannabinoid metabolites (e.g., intermediate or final breakdown products of cannabinoid compounds in the body) will also vary with time after an ingestion event.
As previously referenced, the relative amounts of one cannabinoid compound to another and/or metabolites thereof will vary with time after an ingestion event because their different half-lives in the body. As such, a pattern of compounds captured with a system herein at time point that is closer to the time of ingestion will be different than a pattern of compounds captured at a later time. Referring now to FIG. 2, a chart is shown of elimination curves of various cannabinoids. […] In this example, exemplary test times are shown in the form of Test 1, Test 2, and Test 3, with each test being progressively spaced out farther away in time from the time of ingestion. […] Because of this, patterns as identified by systems herein are different at each test time. For example, at the time of Test 1 (which may be a half-hour after cannabinoid ingestion) the amount of CBN is roughly 80 to 90 percent of the amount of THC. In contrast, at the time of Test 2 (which may be two hours after cannabinoid ingestion) the amount of CBN is only about 50 percent of the amount of THC. […]

## CCCCCc1cc(O)c2c(c1)OC(C)(C)c1ccc(C)cc1-2 [CBN, cannabinol]
  amount of CBN as percent of the amount of THC: about 50%
